Laboratory results from US10118921B2, “Diarylmethylidene piperidine derivatives and their use as delta opoid receptor agnists” (PHARMNOVO AB, priority 2014, dated 2018).

Assays:
Assay type in all cases: cell-based
[1] = target: T1, δ-opioid receptor (DOR) (Homo sapiens, UniProt P41143); assay: β-arrestin recruitment (DiscoveRx Pathunter)
Excerpt: (§1) δ-opioid receptors (DOR) are coupled to inhibitory G proteins (Gi/o) which inhibit adenylyl cyclase activity, open K^+ channels and block Ca^2+ channels. They can also couple, in an agonist-dependent manner to β-arrestin 2, which lead to desensitization, and to MAP kinase (ERK) phosphorylation.
(§2) In Vitro Assessment of δ-Opioid Agonist Potency: […]
(§3) cAMP measurements will be made in δ-opioid-expressing CHO cells exposed to increasing agonist concentrations using DiscoveRx cAMP Hunter™ assay kits. β-arrestin recruitment will be measured in the presence of increasing agonist concentrations using DiscoveRx Pathunter® kits. Selectivity of mu- and kappa-opioid receptors will be performed using Cerep cAMP evaluation from ref. 1392 and 2071 (Cerep Le Bois l'Evéque, 86600 Celle l'Evescault, France).

[2] = target: T1, δ-opioid receptor (DOR); assay: cAMP measurement in δ-opioid-expressing CHO cells (DiscoveRx cAMP Hunter)
Excerpt: as §1, §2, §3

[3] = target: mu-opioid receptor (Homo sapiens, UniProt P35372); assay: Selectivity versus mu-opioid receptor, Cerep cAMP evaluation; conditions: ratio mu/delta
Sequence of mu-opioid receptor (P35372 whole entry): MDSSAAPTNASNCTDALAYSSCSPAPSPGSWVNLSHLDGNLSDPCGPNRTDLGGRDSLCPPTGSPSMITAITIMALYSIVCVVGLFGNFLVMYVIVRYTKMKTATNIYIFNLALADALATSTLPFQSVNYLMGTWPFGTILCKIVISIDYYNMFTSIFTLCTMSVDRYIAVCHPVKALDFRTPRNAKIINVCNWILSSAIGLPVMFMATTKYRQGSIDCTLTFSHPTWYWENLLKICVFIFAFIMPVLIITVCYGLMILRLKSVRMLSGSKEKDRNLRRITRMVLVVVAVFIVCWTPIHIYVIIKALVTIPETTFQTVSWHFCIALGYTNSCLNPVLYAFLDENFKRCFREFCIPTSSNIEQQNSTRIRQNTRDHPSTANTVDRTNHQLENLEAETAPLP
Excerpt: as §3

[4] = target: kappa-opioid receptor (Rattus norvegicus, UniProt P34975); assay: Selectivity versus kappa-opioid receptor, Cerep cAMP evaluation; conditions: ratio kappa/delta
Sequence of kappa-opioid receptor (P34975 whole entry): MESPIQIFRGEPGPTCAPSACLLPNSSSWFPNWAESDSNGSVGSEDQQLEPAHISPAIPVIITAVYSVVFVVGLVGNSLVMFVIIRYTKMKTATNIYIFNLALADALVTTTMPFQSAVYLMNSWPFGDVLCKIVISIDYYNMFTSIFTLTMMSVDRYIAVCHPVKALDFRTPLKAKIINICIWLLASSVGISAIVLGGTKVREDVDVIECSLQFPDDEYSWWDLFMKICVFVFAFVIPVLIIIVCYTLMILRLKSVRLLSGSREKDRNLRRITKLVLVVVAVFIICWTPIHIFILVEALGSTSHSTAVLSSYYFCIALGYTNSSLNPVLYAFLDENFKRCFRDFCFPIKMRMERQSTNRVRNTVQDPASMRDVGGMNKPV
Excerpt: as §3

[5] = β-arrestin recruitment, agonist potency, read-out: EC-50 beta-arrestin
[6] = δ-opioid-expressing CHO cells, agonist potency, read-out: EC-50 cAMP

T1 sequence (P41143 whole entry): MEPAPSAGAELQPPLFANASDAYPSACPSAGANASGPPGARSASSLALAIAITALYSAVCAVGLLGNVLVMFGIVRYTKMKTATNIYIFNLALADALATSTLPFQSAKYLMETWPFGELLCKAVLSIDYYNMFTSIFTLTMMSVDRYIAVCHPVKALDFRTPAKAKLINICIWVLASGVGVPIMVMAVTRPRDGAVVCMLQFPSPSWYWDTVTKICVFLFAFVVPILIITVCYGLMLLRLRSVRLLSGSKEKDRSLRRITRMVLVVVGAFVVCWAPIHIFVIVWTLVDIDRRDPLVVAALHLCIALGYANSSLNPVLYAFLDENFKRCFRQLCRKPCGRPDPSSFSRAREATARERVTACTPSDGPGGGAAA

Compound | EC50 [1, 5] | EC50 [2, 6] | Selectivity (mu/delta) [3] | Selectivity (kappa/delta) [4] | EC50 [1] | EC50 [2]
Cc1nc[nH]c1CN1CCC(=C(c2ccc(C(=O)N(C)C)cc2)c2cccc(C(N)=O)c2)CC1 [Example 1c, 4-[(3-Carbamoylphenyl)({1-[(4-methyl-1H-imidazol-5-yl)methyl]piperidin-4-ylidene})methyl]-N,N-dimethylbenzamide] | 3 nM | 0.5 nM | 1000 | 1000 |  | 
CN(C)C(=O)c1ccc(C(=C2CCN(Cc3ccc(C(F)(F)F)nc3)CC2)c2cccc(C(N)=O)c2)cc1 [Example 1a, 4-[(3-Carbamoylphenyl)(1-{[6-(trifluoromethyl)pyridin-3-yl]methyl}piperidin-4-ylidene)methyl]-N,N-dimethylbenzamide] | 28 nM | 2.8 nM | 360 | 360 |  | 
CN(C)C(=O)c1ccc(C(=C2CCN(Cc3cncs3)CC2)c2cccc(C(N)=O)c2)cc1 [Example 1b, 4-[(3-Carbamoylphenyl)[1-(1,3-thiazol-5-ylmethyl)piperidin-4-ylidene]methyl]-N,N-dimethylbenzamide] |  |  | 100000 | 1000 | 4 nM | 0.5 nM
